Measurements: a compilation of properties of binary mixtures (doi:10.1007/s11581-010-0511-5)

Experiment: xn = mol fraction of the nth substance listed
Conditions: 101 kPa

CO + CCCC[N+]1(C)CCCC1.O=S(=O)([N-]S(=O)(=O)C(F)(F)F)C(F)(F)F
x2 = 0
Conditions | viscosity [mPa·s]
298.15 K | 0.7
303.15 K | 0.66
308.15 K | 0.61
313.15 K | 0.57
318.15 K | 0.53

CCCC[N+]1(C)CCCC1.O=S(=O)([N-]S(=O)(=O)C(F)(F)F)C(F)(F)F + CO
Conditions | electrical conductivity [S/m] | viscosity [mPa·s]
293.15 K, x1 = 0.11 | 0.628 | 2.16
293.15 K, x1 = 0.16 | 1.22 | 3.9
293.15 K, x1 = 0.21 | 1.6 | 6.01
293.15 K, x1 = 0.32 | 1.98 | 10.65
293.15 K, x1 = 0.42 | 2.14 | 15.15
293.15 K, x1 = 0.47 | 2.04 | 17.28
293.15 K, x1 = 0.53 | 1.82 | 19.42
293.15 K, x1 = 0.58 | 1.63 | 21.7
293.15 K, x1 = 0.63 | 1.47 | 24.4
293.15 K, x1 = 0.68 | 1.23 | 27.6
293.15 K, x1 = 0.74 | 0.998 | 31.9
293.15 K, x1 = 0.79 | 0.82 | 37.6
293.15 K, x1 = 0.84 | 0.649 | 45.2
293.15 K, x1 = 0.89 | 0.402 | 55.3
293.15 K, x1 = 0.95 | – | 68.7
293.15 K, x1 = 1 | 0.229 | 86
298.15 K, x1 = 0.05 | 0.399 | 0.94
298.15 K, x1 = 0.11 | 0.684 | 1.93
298.15 K, x1 = 0.16 | 1.32 | 3.43
298.15 K, x1 = 0.21 | 1.73 | 5.24
298.15 K, x1 = 0.32 | 2.15 | 9.18
298.15 K, x1 = 0.37 | 2.32 | 11.1
298.15 K, x1 = 0.42 | 2.37 | 12.93
298.15 K, x1 = 0.47 | 2.33 | 14.69
298.15 K, x1 = 0.53 | 2.12 | 16.43
298.15 K, x1 = 0.58 | 1.88 | 18.28
298.15 K, x1 = 0.63 | 1.66 | 20.39
298.15 K, x1 = 0.68 | 1.43 | 23
298.15 K, x1 = 0.74 | 1.2 | 26.3
298.15 K, x1 = 0.79 | 0.991 | 30.8
298.15 K, x1 = 0.84 | 0.786 | 36.7
298.15 K, x1 = 0.89 | 0.495 | 44.6
298.15 K, x1 = 0.95 | – | 54.9
298.15 K, x1 = 1 | 0.282 | 68.1
303.15 K, x1 = 0.05 | 0.43 | 0.88
303.15 K, x1 = 0.11 | 0.754 | 1.75
303.15 K, x1 = 0.16 | 1.43 | 3.06
303.15 K, x1 = 0.21 | 1.88 | 4.62
303.15 K, x1 = 0.32 | 2.35 | 7.96
303.15 K, x1 = 0.37 | 2.53 | 9.57
303.15 K, x1 = 0.47 | 2.59 | 12.57
303.15 K, x1 = 0.53 | 2.37 | 14.02
303.15 K, x1 = 0.58 | 2.1 | 15.54
303.15 K, x1 = 0.63 | 1.84 | 17.28
303.15 K, x1 = 0.68 | 1.6 | 19.39
303.15 K, x1 = 0.74 | 1.35 | 22.1
303.15 K, x1 = 0.79 | 1.13 | 25.6
303.15 K, x1 = 0.84 | 0.94 | 30.2
303.15 K, x1 = 0.89 | 0.601 | 36.2
303.15 K, x1 = 0.95 | – | 44
303.15 K, x1 = 1 | 0.344 | 54
308.15 K, x1 = 0.05 | 0.464 | 0.82
308.15 K, x1 = 0.11 | 0.816 | 1.6
308.15 K, x1 = 0.16 | 1.54 | 2.75
308.15 K, x1 = 0.21 | 2.07 | 4.1
308.15 K, x1 = 0.32 | 2.55 | 6.97
308.15 K, x1 = 0.37 | 2.74 | 8.34
308.15 K, x1 = 0.42 | 2.86 | 9.64
308.15 K, x1 = 0.53 | 2.65 | 12.09
308.15 K, x1 = 0.58 | 2.36 | 13.36
308.15 K, x1 = 0.63 | 2.1 | 14.8
308.15 K, x1 = 0.74 | 1.57 | 18.74
308.15 K, x1 = 0.79 | 1.33 | 21.6
308.15 K, x1 = 0.84 | 1.1 | 25.3
308.15 K, x1 = 0.89 | 0.686 | 30.2
308.15 K, x1 = 0.95 | – | 36.4
308.15 K, x1 = 1 | 0.415 | 44.4
313.15 K, x1 = 0.05 | 0.504 | 0.77
313.15 K, x1 = 0.11 | 0.86 | 1.47
313.15 K, x1 = 0.16 | 1.66 | 2.48
313.15 K, x1 = 0.21 | 2.24 | 3.67
313.15 K, x1 = 0.26 | 2.53 | 4.92
313.15 K, x1 = 0.37 | 2.95 | 7.34
313.15 K, x1 = 0.42 | 3.07 | 8.45
313.15 K, x1 = 0.47 | 3.09 | 9.51
313.15 K, x1 = 0.58 | 2.63 | 11.64
313.15 K, x1 = 0.63 | 2.38 | 12.85
313.15 K, x1 = 0.79 | 1.55 | 18.4
313.15 K, x1 = 0.89 | 0.876 | 25.1
313.15 K, x1 = 0.95 | – | 29.8
318.15 K, x1 = 0.05 | 0.538 | 0.73
318.15 K, x1 = 0.11 | 0.94 | 1.36
318.15 K, x1 = 0.16 | 1.8 | 2.26
318.15 K, x1 = 0.26 | 2.7 | 4.39
318.15 K, x1 = 0.32 | 3.02 | 5.45
318.15 K, x1 = 0.37 | 3.18 | 6.46
318.15 K, x1 = 0.42 | 3.26 | 7.41
318.15 K, x1 = 0.47 | 3.3 | 8.32
318.15 K, x1 = 0.53 | 3.18 | 9.22
318.15 K, x1 = 0.58 | 2.86 | 10.16
318.15 K, x1 = 0.74 | 1.98 | 14.02
318.15 K, x1 = 0.89 | 0.991 | 21.4
318.15 K, x1 = 1 | 0.559 | 29.7
